Assay results: ChEMBL document CHEMBL1149299, “Hemolytic effects of water-soluble fullerene derivatives” (J Med Chem, 2004)

Legend:
[1] = Cytotoxicity against […] HepG2 cells by MTT assay; format: cell-based; settings: read-out: LD50 (the source's name)
[2] = Cytotoxicity against human MCF7 by MTT assay; format: cell-based; settings: MCF7 cells, read-out: LD50 (the source's name)
[3] = Cytotoxicity against pig LLC-PK1 cells by MTT assay; format: cell-based, Sus scrofa; settings: read-out: LD50 (the source's name)
Erythrocyte [4] = assay: Hemolytic activity in human RBC at 80 uM; format: functional
Erythrocyte [5] = assay: Hemolytic activity in human RBC at 30 uM; format: functional

SMILES | CC50 [1] | CC50 [2] | CC50 [3] | Activity (Erythrocyte [4]) | Activity (Erythrocyte [5])
C[N+]1(CCOCCOCCN)CCCC1 | > 80 µM | > 80 µM | > 80 µM |  | 
CCCCCCCCCCCCCCCCCC(=O)NCCOCCOCCN.Cl | > 80 µM | > 80 µM | > 80 µM | 53% | 34%
